Consider 13 compounds from patent publication US10053468B2, “Heterocyclic compound” (TAKEDA PHARMACEUTICAL COMPANY LIMITED, priority 2013, dated 2018).

Read-outs that look alike come from different tables or passages of the source.

One assay has as its system IL-17A gene expression. The assay is described as follows: Effect on IL-23-induced cytokine expression in mice. Format: in vivo, Balb/c mice. The settings on record: Mus musculus; dose 30 mg/kg oral, 30 min before and 8 hr after IL-23; versus the negative control group; read-out: Percent inhibition of IL-17A gene expression. As for the experimental part: Effect on IL-23-induced Cytokine Expression in Mice
A mouse IL-23 solution (500 ng/10 μL, prepared by Takeda Pharmaceutical Company Limited) or PBS (10 μL, negative control group) was administered intradermally in the ear of Balb/c mice (Charles River Japan, male, 7 weeks old). Twenty-four hr after administration, the ear was resected under isoflurane anesthesia. The test compound was suspended in 0.5% methylcellulose and administered orally 30 min before and 8 hr after IL-23 administration.
RNA extraction from the ear tissue and quantitative PCR were performed as follows. Specifically, ear tissue 5 mm in diameter was punched from an area of the resected ear centering on the IL-23 injection site, and the tissue was immersed in RNAlater (QIAGEN) for at least 18 hr. The RNAlater-treated ear tissue was homogenized in 350 μL of RLT buffer (RNeasy mini kit, QIAGEN) and treated (55° C., 10 min) with Proteinase K (QIAGEN). Total RNA was then extracted according to the RNeasy mini kit protocol. The RNA thus obtained was then reverse transcribed into cDNA using the High-Capacity RNA-to-cDNA kit (Applied Biosystems), and the amount of each cytokine expressions was measured by real-time PCR (Viia7™, Applied Biosystems). The PCR buffer used was TaqMan Fast Advanced Master Mix (Applied Biosystems), and TaqMan Gene Expression Assays (Applied Biosystems) Mm00439618 ml (IL-17A) and 4352341E (β-actin) were used for cytokine gene detection. The IL-17A gene expression level was normalized to the R-actin gene expression level, and the percent inhibition of IL-17A gene expression with the test compound was then calculated.
The results obtained with the above-described method (percent inhibition of IL-17A gene expression with oral administration of the test compound) are shown in Table 5.

Assay [1] concerns the target T1, RORγt (Homo sapiens, UniProt P51449).
T1 sequence (P51449 1-497 isoform P51449-2): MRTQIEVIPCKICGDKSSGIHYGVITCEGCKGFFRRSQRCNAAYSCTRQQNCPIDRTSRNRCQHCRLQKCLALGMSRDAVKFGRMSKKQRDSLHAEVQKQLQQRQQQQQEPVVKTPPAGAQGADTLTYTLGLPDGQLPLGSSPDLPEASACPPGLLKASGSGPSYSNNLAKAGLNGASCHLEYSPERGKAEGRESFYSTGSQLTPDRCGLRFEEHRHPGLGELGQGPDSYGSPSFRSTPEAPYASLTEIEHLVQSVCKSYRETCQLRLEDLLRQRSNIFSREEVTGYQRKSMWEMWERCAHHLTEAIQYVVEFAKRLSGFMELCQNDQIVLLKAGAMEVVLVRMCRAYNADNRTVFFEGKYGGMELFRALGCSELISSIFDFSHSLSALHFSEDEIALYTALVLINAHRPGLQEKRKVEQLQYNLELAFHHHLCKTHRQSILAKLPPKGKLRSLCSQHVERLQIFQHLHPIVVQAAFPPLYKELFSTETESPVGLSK
Briefly: Jurkat reporter test (human IL-17 ROR response element luciferase, RORγt vector). Format: cell-based. To be noted: read-out: Luminescence level inhibitory rate at test compound 3 μM (%). In outline:
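Luminescence (Bright-Glo, 10 min, RT) was measured after overnight compound treatment of electroporated Jurkat cells (1350 V, 10 ms interval, 3 pulses). The reaction medium was RPMI with 10% lipid-reduced FCS, 10 mM HEPES (pH 7.5) and 5 μM lovastatin.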

The target in assay [2] is T1, RORγt. Briefly: Cofactor recruitment test (Alpha Screen, biotinylated SRC-1 peptide). Format: biochemical. To be noted: read-out: Signal value inhibitory rate at test compound 1 μM (%). The procedure: Cofactor Recruitment Test
Cofactor recruitment test was performed by Alpha Screen (Histidine Detection Kit, PerkinElmer) method. First, a test compound was diluted with an assay buffer (50 mM Tris-HCl (pH 7.5), 50 mM KCl, 1 mM DTT, 0.1% BSA) and added to a 384 well plate by 5 μL. […] The mixture was stood in a dark place for 1 hr, and the signal value was measured by Envision (PerkinElmer).

For assay [3], the target named is T1, RORγt. Briefly: RORγt binding test using fluorescent-labeled synthetic ligand (TR-FRET). The settings on record: read-out: Binding inhibitory rate of fluorescent-labeled synthetic ligand to RORγt at test compound 1 μM (%). In outline:
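His-tagged RORγt (diluted to 240 nM) with compound, then fluorescent synthetic ligand (diluted to 12 μM), 20 min at room temperature, followed by Tb anti-His antibody (diluted to 8 nM), 20 min.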
A general note: Time-resolved FRET reads energy transfer from a long-lived donor to a nearby acceptor.

For assay [4], the target named is T1, RORγt. The assay is described as follows: RORγt binding test using fluorescent-labeled cholesterol (TR-FRET). To be noted: read-out: Binding inhibitory rate of fluorescent-labeled cholesterol to RORγt at test compound 1 μM (%). A digest of the protocol: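 After 20 min at room temperature with His-tagged RORγt and BODIPY-cholesterol in pH 7.5 Tris buffer (NaCl, DTT, BSA), compound wells got terbium anti-His antibody for another 20 min. Time-resolved FRET was read with excitation 320 nm, emission 520 nm and a 100 µs delay.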

Setting [5] is: test compound 3 μM, Jurkat cells.

For the compound `COc1ccc2c(c1)CCN(C(=O)CCCC(=O)O)[C@H]2C(=O)Nc1cc(F)c(C(C)(C)C)c(F)c1` [Example 109, 5-((1R)-1-((4-tert-butyl-3,5-difluorophenyl)carbamoyl)-6-methoxy-3,4-dihydroisoquinolin-2(1H)-yl)-5-oxopentanoic acid], the inhibition in vivo at 30 mg/kg in the assay on IL-17A gene expression amounted to 96%.
In the case of `COc1ccc2c(c1)CCN(C(=O)Cc1nnc(C)o1)[C@H]2C(=O)Nc1cc(F)c(C(C)(C)C(=O)N2CCCC2)c(F)c1` [Example 106, (1R)-N-(3,5-difluoro-4-(2-methyl-1-oxo-1-(pyrrolidin-1-yl)propan-2-yl)phenyl)-6-methoxy-2-((5-methyl-1,3,4-oxadiazol-2-yl)acetyl)-1,2,3,4-tetrahydroisoquinoline-1-carboxamide], the inhibition at 3 µM at RORγt [1] (setting [5]) stood at 102%. Moreover, the inhibition at 1 µM on RORγt [2] is 101%; on RORγt [3], 101%; on RORγt [4], 102%.
On to `COc1ccc2c(c1)CCN(C(=O)[C@@H]1CNC(=O)C1)[C@H]2C(=O)Nc1ccc(C(C)(C)C)c(F)c1` [Example 25, (1R)-N-(4-tert-butyl-3-fluorophenyl)-6-methoxy-2-(((3S)-5-oxopyrrolidin-3-yl)carbonyl)-1,2,3,4-tetrahydroisoquinoline-1-carboxamide], for which, on RORγt [1] (setting [5]), the inhibition at 3 µM stood at 102%. The inhibition at 1 µM on RORγt [2] turned out to be 85.8%; on RORγt [3], 101%; at RORγt [4], 102%.
Turning to `CCOc1ccc2c(n1)CCN(C(=O)c1cc(O)no1)[C@H]2C(=O)Nc1cc(F)c([Si](C)(C)C)c(F)c1` [Example 126, (5R)-N-(3,5-difluoro-4-(trimethylsilyl)phenyl)-2-ethoxy-6-((3-hydroxy-1,2-oxazol-5-yl)carbonyl)-5,6,7,8-tetrahydro-1,6-naphthyridine-5-carboxamide], the inhibition at 3 µM on RORγt [1] (Jurkat) was found to be 102%. Further, the inhibition at 1 µM on RORγt [2] came out at 100%; on RORγt [3], 101%; at RORγt [4] it was 101%.
As for `CCOCC(C)(C)c1c(F)cc(NC(=O)[C@H]2c3ccc(OCC)cc3CCN2C(=O)c2cc(O)no2)cc1F` [Example 167, (1R)-6-ethoxy-N-(4-(1-ethoxy-2-methylpropan-2-yl)-3,5-difluorophenyl)-2-((3-hydroxy-1,2-oxazol-5-yl)carbonyl)-1,2,3,4-tetrahydroisoquinoline-1-carboxamide], the inhibition at 3 µM on RORγt [1] (setting [5]) was determined as 97%. Further, the inhibition at 1 µM turned out to be 85% on RORγt [2], 102% at RORγt [3] and 101% at RORγt [4].
For the compound `COCc1ccc2c(c1)CCN(C(=O)c1cc(O)no1)[C@H]2C(=O)Nc1cc(F)c2c(c1)CCC2(C)C` [Example 133, (1R)-N-(7-fluoro-1,1-dimethyl-2,3-dihydro-1H-inden-5-yl)-2-((3-hydroxy-1,2-oxazol-5-yl)carbonyl)-6-(methoxymethyl)-1,2,3,4-tetrahydroisoquinoline-1-carboxamide], the inhibition at 3 µM on RORγt [1] (setting [5]) stood at 103%. Further, the inhibition at 1 µM on RORγt [2] is 96%; on RORγt [3] it was 101%; at RORγt [4] it was 103%.
For `CCOCC(C)(C)c1c(F)cc(NC(=O)[C@H]2c3ccc(OC)cc3CCN2C(=O)Cc2cc(O)no2)cc1F` [Example 170, (1R)-N-(4-(1-ethoxy-2-methylpropan-2-yl)-3,5-difluorophenyl)-2-((3-hydroxy-1,2-oxazol-5-yl)acetyl)-6-methoxy-1,2,3,4-tetrahydroisoquinoline-1-carboxamide], the inhibition at 3 µM on RORγt [1] (setting [5]) came out at 97%. Besides, the inhibition at 1 µM on RORγt [2] came out at 81%; at RORγt [3] it was 102%; on RORγt [4], 102%.
On to `COc1ccc2c(c1)CCN(C(=O)Cc1cc(O)no1)[C@H]2C(=O)Nc1ccc([Si](C)(C)C)c(F)c1` [Example 73, (1R)-N-(3-fluoro-4-(trimethylsilyl)phenyl)-2-((3-hydroxy-1,2-oxazol-5-yl)acetyl)-6-methoxy-1,2,3,4-tetrahydroisoquinoline-1-carboxamide], for which the inhibition at 3 µM at RORγt [1] (Jurkat) came out at 100%. Also, the inhibition at 1 µM at RORγt [2] worked out at 90%; on RORγt [3] it was 102%; at RORγt [4], 102%.
With `COCC(C)(C)c1ccc(NC(=O)[C@H]2c3ccc(OC)cc3CCN2C(=O)c2cc(O)no2)cc1F` [Example 69, (1R)-N-(3-fluoro-4-(1-methoxy-2-methylpropan-2-yl)phenyl)-2-((3-hydroxy-1,2-oxazol-5-yl)carbonyl)-6-methoxy-1,2,3,4-tetrahydroisoquinoline-1-carboxamide], the inhibition at 3 µM at RORγt [1] (setting [5]) is 100%. Moreover, the inhibition at 1 µM was 83% on RORγt [2], 101% on RORγt [3] and 102% at RORγt [4].
Consider `COCC(C)(C)c1c(F)cc(NC(=O)[C@H]2c3ccc(OC)cc3CCN2C(=O)Cc2cc(O)no2)cc1F` [Example 98, (1R)-N-(3,5-difluoro-4-(1-methoxy-2-methylpropan-2-yl)phenyl)-2-((3-hydroxy-1,2-oxazol-5-yl)acetyl)-6-methoxy-1,2,3,4-tetrahydroisoquinoline-1-carboxamide], for which the inhibition at 3 µM at RORγt [1] (setting [5]) is 102%. The inhibition at 1 µM came out at 96% on RORγt [2], 102% at RORγt [3] and 99% at RORγt [4].
With `CCOc1ccc2c(n1)CCN(C(=O)CCCC(=O)O)[C@H]2C(=O)Nc1ccc([Si](C)(C)C)c(F)c1` [Example 152, 5-((5R)-2-ethoxy-5-((3-fluoro-4-(trimethylsilyl)phenyl)carbamoyl)-7,8-dihydro-1,6-naphthyridin-6(5H)-yl)-5-oxopentanoic acid], the inhibition at 3 µM at RORγt [1] (Jurkat) is 103%. Besides, the inhibition at 1 µM at RORγt [2] stood at 97%; on RORγt [3] it was 101%; on RORγt [4], 102%.
For `COc1ccc2c(c1)CCN(C(=O)Cc1cccnc1)[C@H]2C(=O)Nc1cc(F)c(C(C)(C)C(=O)N2CCCC2)c(F)c1` [Example 105, (1R)-N-(3,5-difluoro-4-(2-methyl-1-oxo-1-(pyrrolidin-1-yl)propan-2-yl)phenyl)-6-methoxy-2-(pyridin-3-ylacetyl)-1,2,3,4-tetrahydroisoquinoline-1-carboxamide], on RORγt [1] (setting [5]), the inhibition at 3 µM turned out to be 101%. Further, the inhibition at 1 µM came out at 100% on RORγt [2], 101% on RORγt [3] and 103% at RORγt [4].
In the case of `COc1ccc2c(n1)CCN(C(=O)c1cc(O)no1)[C@H]2C(=O)Nc1cc(F)c2c(c1)CCC2(C)C` [Example 115, (5R)-N-(7-fluoro-1,1-dimethyl-2,3-dihydro-1H-inden-5-yl)-6-((3-hydroxy-1,2-oxazol-5-yl)carbonyl)-2-methoxy-5,6,7,8-tetrahydro-1,6-naphthyridine-5-carboxamide], at RORγt [1] (setting [5]), the inhibition at 3 µM was 102%. Besides, the inhibition at 1 µM came out at 89% at RORγt [2], 101% at RORγt [3] and 103% on RORγt [4].
